Measured values published in patent US12037344B2, “NLRP3 modulators” (INNATE TUMOR IMMUNITY, INC., priority 2018, dated 2024).
Read-outs that look alike come from different tables or passages of the source.

Legend:
[1] = test system: THP-1 cells; assay: Measurement of IL-1β production, hTRF protocol (second alternative procedure), THP-1 cells; format: cell-based, human; details: Homo sapiens
Method in brief: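 Compounds, dilution series starting at a final 10 μM, were incubated 2 hours at 37° C with PMA-differentiated THP-1 cells (50 ng/ml overnight; 50,000 cells/well, 2% FBS RPMI). Released IL-1β quantified in supernatant by hTRF kit with 1:40 antibody dilution, 4° C overnight, 665/615 nm ratio.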

[2] = target: T1, TLR8 (Homo sapiens, UniProt Q9NR97); assay: In vitro human TLR8 binding reporter assay (HEK-Blue, NF-kB/AP1-inducible SEAP); format: cell-based; details: activity range class, read-out: TLR8 Agonist EC50
T1 construct: human HEK-Blue cells co-expressing a TLR7 or TLR8 gene
T1 sequence (Q9NR97 27-1041): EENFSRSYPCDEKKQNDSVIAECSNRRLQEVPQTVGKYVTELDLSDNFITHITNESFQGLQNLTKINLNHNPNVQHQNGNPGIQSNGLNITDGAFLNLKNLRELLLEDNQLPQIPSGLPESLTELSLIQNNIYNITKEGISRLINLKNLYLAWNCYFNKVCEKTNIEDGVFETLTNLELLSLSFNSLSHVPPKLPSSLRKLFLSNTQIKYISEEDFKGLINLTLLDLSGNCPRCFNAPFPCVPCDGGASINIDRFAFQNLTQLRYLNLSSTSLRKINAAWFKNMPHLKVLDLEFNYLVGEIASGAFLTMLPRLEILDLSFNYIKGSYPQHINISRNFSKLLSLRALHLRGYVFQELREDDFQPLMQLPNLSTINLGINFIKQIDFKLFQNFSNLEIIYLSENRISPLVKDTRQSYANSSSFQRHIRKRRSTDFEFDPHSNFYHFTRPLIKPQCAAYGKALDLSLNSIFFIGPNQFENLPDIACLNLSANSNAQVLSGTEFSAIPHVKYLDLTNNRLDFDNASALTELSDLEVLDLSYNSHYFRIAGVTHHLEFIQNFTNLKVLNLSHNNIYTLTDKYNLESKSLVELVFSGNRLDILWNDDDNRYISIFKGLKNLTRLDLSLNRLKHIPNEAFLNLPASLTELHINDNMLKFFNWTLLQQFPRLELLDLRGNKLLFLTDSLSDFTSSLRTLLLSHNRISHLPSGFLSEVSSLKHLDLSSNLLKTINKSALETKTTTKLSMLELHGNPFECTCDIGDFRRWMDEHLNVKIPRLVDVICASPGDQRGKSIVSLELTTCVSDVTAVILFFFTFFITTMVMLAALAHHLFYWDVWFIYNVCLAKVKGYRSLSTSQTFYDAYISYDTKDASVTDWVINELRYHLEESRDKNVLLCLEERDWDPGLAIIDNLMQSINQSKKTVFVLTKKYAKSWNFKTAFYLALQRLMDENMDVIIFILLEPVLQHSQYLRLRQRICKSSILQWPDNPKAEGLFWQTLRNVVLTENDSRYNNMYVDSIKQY
Method in brief: (§1)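 EC50s come from NF-kB/AP1-driven SEAP secretion in HEK-Blue cells expressing TLR7 or TLR8, measured with Quanti-Blue after an 18 h compound incubation. Maximal response is defined by a 50 μM reference standard.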

[3] = target: T2, TLR7 (Homo sapiens, UniProt Q9NYK1); assay: In vitro human TLR7 binding reporter assay (HEK-Blue, NF-kB/AP1-inducible SEAP); format: cell-based; details: activity range class, read-out: TLR7 Agonist EC50
T2 construct: human HEK-Blue cells co-expressing a TLR7 or TLR8 gene
T2 sequence (Q9NYK1 27-1049): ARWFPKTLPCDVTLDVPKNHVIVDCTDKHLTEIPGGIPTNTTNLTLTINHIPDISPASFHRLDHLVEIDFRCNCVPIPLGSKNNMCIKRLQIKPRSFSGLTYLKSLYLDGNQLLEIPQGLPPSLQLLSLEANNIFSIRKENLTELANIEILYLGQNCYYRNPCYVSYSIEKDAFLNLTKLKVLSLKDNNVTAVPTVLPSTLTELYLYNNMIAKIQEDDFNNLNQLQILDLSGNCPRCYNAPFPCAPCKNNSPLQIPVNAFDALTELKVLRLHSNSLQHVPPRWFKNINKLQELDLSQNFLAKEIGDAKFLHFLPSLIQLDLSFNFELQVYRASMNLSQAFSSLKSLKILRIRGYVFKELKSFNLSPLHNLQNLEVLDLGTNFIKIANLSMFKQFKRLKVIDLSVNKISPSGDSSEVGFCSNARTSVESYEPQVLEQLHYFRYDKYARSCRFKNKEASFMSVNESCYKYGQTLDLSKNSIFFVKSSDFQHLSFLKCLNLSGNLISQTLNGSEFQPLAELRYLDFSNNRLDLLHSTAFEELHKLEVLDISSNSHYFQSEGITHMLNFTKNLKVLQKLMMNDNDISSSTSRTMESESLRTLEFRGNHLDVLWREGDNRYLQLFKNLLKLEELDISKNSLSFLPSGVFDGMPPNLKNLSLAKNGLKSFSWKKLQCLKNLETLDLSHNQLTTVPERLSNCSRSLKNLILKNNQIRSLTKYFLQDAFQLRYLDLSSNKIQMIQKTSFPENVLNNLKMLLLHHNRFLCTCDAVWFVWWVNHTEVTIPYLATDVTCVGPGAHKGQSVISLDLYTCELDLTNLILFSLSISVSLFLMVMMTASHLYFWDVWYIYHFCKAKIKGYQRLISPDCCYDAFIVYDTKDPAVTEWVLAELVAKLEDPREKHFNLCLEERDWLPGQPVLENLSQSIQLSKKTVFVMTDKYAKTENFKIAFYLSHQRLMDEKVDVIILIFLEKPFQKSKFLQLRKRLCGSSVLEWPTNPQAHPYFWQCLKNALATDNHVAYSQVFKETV
Method in brief: as §1

[4] = THP-1, IL-1β production, human, read-out: NLRP3 hILIB EC50
[5] = THP-1, read-out: NLRP3 hILIB EC50

| Compound | EC50 [1, 4] | EC50 [2] | EC50 [3] | EC50 [1, 5] |
| --- | --- | --- | --- | --- |
| Nc1nc2cc(-c3cccs3)ccc2c2cn(CCNC(=O)c3ccccn3)nc12 [Example 131] | 0.61 µM | > 100 µM | > 100 µM |  |
| Nc1nc2cc(-n3cccn3)ccc2c2cn(CCNC(=O)c3ccccc3)nc12 [Example 132, N-{2-[4-amino-7-(1H-pyrazol-1-yl)-2H-pyrazolo[3,4-c]quinolin-2-yl]ethyl}benzamide] |  | 20 to 100 µM | > 100 µM | 0.34 µM |
| Nc1nc2cc(-n3cccn3)ccc2c2cn(CCNC(=O)c3ccccn3)nc12 [Example 133, N-{2-[4-amino-7-(1H-pyrazol-1-yl)-2H-pyrazolo[3,4-c]quinolin-2-yl]ethyl}pyridine-2-carboxamide] | 0.3 µM | > 100 µM | > 100 µM |  |
| COC(=O)NCc1nc2c(N)nc3cc(-c4ccn[nH]4)ccc3c2s1 [Example 134, methyl N-[[4-amino-7-(1H-pyrazol-5-yl)-[1,3]thiazolo[4,5-c]quinolin-2-yl]methyl]carbamate] | 0.37 µM | > 100 µM | 20 to 100 µM |  |
| Nc1nc2cc(-c3ccn[nH]3)ccc2c2sc(CCNC(=O)c3ccccc3)nc12 [Example 135, N-(2-(4-amino-7-(1H-pyrazol-5-yl)thiazolo[4,5-c]quinolin-2-yl)ethyl) benzamide] | 0.98 µM | > 100 µM | > 100 µM |  |
| Nc1nc2cc(-c3ccn[nH]3)ccc2c2sc(CCNC(=O)c3ccccn3)nc12 [Example 136, N-[2-[4-amino-7-(1H-pyrazol-5-yl)-[1,3]thiazolo[4,5-c]quinolin-2-yl]ethyl]pyridine-2-carboxamide] | 0.16 µM | > 100 µM | 20 to 100 µM |  |
| Nc1nc2cc(-c3ccn[nH]3)ccc2c2sc(CCNC(=O)C3CCO3)nc12 (stereo not drawn) [Example 137, N-[2-[4-amino-7-(1H-pyrazol-5-yl)-[1,3]thiazolo[4,5-c]quinolin-2-yl]ethyl]oxetane-2-carboxamide] | 1.67 µM | > 100 µM | > 100 µM |  |
| NCCCc1nc2c(N)nc3cc(-c4ccn[nH]4)ccc3c2s1 [Example 138] | 3.92 µM | > 100 µM | > 100 µM |  |
| CC(=O)NCCCc1nc2c(N)nc3cc(-c4ccn[nH]4)ccc3c2s1 [Example 139, N-[3-[4-amino-7-(1H-pyrazol-5-yl)-[1,3]thiazolo[4,5-c]quinolin-2-yl]propyl]acetamide] | 7.8 µM | > 100 µM | > 100 µM |  |
| CCN(Cc1nc2c(N)nc3cc(-c4ccn[nH]4)ccc3c2s1)C(C)=O [Example 140, N-{[4-amino-7-(1H-pyrazol-3-yl)-[1,3]thiazolo[4,5-c]quinolin-2-yl]methyl}-N-ethylacetamide] | 1.65 µM | > 100 µM | > 100 µM |  |
| Nc1nc2cc(-c3ccn[nH]3)ccc2c2sc(CCCOCc3ccccc3)nc12 [Example 141, 2-[3-(benzyloxy)propyl]-7-(1H-pyrazol-3-yl)-[1,3]thiazolo[4,5-c]quinolin-4-amine] | 6.28 µM | ≤ 1 µM | > 100 µM |  |
| Nc1nc2cc(-c3ccn[nH]3)ccc2c2sc(CCCO)nc12 [Example 142, 3-[4-amino-7-(1H-pyrazol-3-yl)-[1,3]thiazolo[4,5-c]quinolin-2-yl]propan-1-ol] | 1.5 µM | 20 to 100 µM | > 100 µM |  |
| CN(C)Cc1nc2c(N)nc3cc(-c4ccn[nH]4)ccc3c2s1 [Example 143, 2-[(dimethylamino)methyl]-7-(1H-pyrazol-5-yl)-[1,3]thiazolo[4,5-c]quinolin-4-amine] | 0.4 µM | > 100 µM | > 100 µM |  |
| CCN(CC)CCCc1nc2c(N)nc3cc(-c4ccn[nH]4)ccc3c2s1 [Example 144, 2-[3-(diethylamino)propyl]-7-(1H-pyrazol-5-yl)-[1,3]thiazolo[4,5-c]quinolin-4-amine] | 0.66 µM | > 100 µM | > 100 µM |  |
| CN(C)Cc1nc2c(N)nc3cc(-c4ccn[nH]4)ccc3c2o1 [Example 145, 2-[(dimethylamino)methyl]-7-(1H-pyrazol-5-yl)-[1,3]oxazolo[4,5-c]quinolin-4-amine] | 2.74 µM | > 100 µM | > 100 µM |  |
| Nc1nc2cc(-c3ccn[nH]3)ccc2c2oc(CCCO)nc12 [Example 147, 3-[4-amino-7-(1H-pyrazol-3-yl)-[1,3]oxazolo[4,5-c]quinolin-2-yl]propan-1-ol] |  | > 100 µM | > 100 µM | 6.09 µM |
| NCCn1cc2c(N)nc3cc(-c4cc[nH]n4)ccc3c2n1 [Example 149, 2-(2-aminoethyl)-7-(1H-pyrazol-3-yl)-2H-pyrazolo[4,3-c]quinolin-4-amine] | 0.38 µM | > 100 µM | > 100 µM |  |
| Nc1nc2cc(-c3cc[nH]n3)ccc2c2nn(CCNC(=O)c3ccccn3)cc12 [Example 150, N-{2-[4-amino-7-(1H-pyrazol-3-yl)-2H-pyrazolo[4,3-c]quinolin-2-yl]ethyl}pyridine-2-carboxamide] | 0.07 µM | > 100 µM | > 100 µM |  |
| Nc1nc2cc(-c3cc[nH]n3)ccc2c2nn(CCNC(=O)c3csc(Cl)n3)cc12 [Example 151, N-{2-[4-amino-7-(1H-pyrazol-3-yl)-2H-pyrazolo[4,3-c]quinolin-2-yl]ethyl}-2-chloro-1,3-thiazole-4-carboxamide] | 0.06 µM | > 100 µM | > 100 µM |  |
| CN(C)CCc1cc2c(N)nc3cc(-c4ccn[nH]4)ccc3c2[nH]1 [Example 153, 2-[2-(dimethylamino)ethyl]-7-(1H-pyrazol-5-yl)-1H-pyrrolo[3,2-c]quinolin-4-amine] | 0.7 µM | > 100 µM | > 100 µM |  |
| CCC(=O)NCCc1cc2c(N)nc3cc(-c4ccn[nH]4)ccc3c2[nH]1 [Example 154, N-{2-[4-amino-7-(1H-pyrazol-5-yl)-1H-pyrrolo[3,2-c]quinolin-2-yl]ethyl}propanamide] | 1 µM | > 100 µM | > 100 µM |  |
| Nc1nc2cc(-c3ccn[nH]3)ccc2c2[nH]c(CCNC(=O)c3ccccn3)cc12 [Example 155, N-[2-[4-amino-7-(1H-pyrazol-5-yl)-1H-pyrrolo[3,2-c]quinolin-2-yl]ethyl]pyridine-2-carboxamide] | 0.01 µM | > 100 µM | > 100 µM |  |
